The record followed here is ChEMBL document CHEMBL5678807, “A selective jumonji H3K27 demethylase inhibitor modulates the proinflammatory macrophage response” (Nature, 2012).

The target in one experiment is Histone deacetylase 3 (Homo sapiens, UniProt O15379). The experiment is described as follows: Inhibition of human HDAC3 by FLINT assay.
A short description of experiment [1]: Antagonist activity at human 5-HT3 by intracellular Ca fluorescence assay. It is filed as cell-based.
Experiment [2] has as its target T1, 5-hydroxytryptamine receptor 1B (Homo sapiens, UniProt P28222). In words: Antagonist activity at human 5-HT1B by SPA. It counts as functional.
For the next experiment, the target named is Histone deacetylase 4 (Homo sapiens, UniProt P56524). In words: Inhibition of human HDAC4 by FLINT assay.
The target of experiment [3] is Potassium voltage-gated channel subfamily A member 5 (Homo sapiens, UniProt P22460). The experiment is described as follows: Blockade of human Kv1.5 by electrophysiology assay.
Sequence of Potassium voltage-gated channel subfamily A member 5 (P22460 whole entry): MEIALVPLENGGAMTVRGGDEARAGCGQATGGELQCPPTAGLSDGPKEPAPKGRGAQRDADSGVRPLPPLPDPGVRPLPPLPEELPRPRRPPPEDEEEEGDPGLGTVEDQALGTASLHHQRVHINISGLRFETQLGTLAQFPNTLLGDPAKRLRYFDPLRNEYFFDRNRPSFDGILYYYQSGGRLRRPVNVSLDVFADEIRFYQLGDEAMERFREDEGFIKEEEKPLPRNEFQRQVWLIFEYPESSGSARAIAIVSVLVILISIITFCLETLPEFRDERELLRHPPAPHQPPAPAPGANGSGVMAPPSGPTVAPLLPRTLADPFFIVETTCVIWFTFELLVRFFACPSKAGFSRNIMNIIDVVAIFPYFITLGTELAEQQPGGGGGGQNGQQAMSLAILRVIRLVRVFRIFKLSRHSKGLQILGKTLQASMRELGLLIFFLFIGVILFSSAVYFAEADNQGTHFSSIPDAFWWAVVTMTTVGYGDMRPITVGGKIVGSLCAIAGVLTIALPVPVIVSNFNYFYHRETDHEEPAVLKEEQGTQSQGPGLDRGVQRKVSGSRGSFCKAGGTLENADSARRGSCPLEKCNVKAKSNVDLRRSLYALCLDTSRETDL
For experiment [4], the target named is Lysine-specific demethylase 4D (Homo sapiens, UniProt Q6B0I6). In words: Inhibition of human JmjD2d using H3K27(me3) as substrate preincubated for 10 mins followed by substrate addition and measured after 7 mins in presence of alpha-KG by RapidFire Mass Spectrometry.
Sequence of Lysine-specific demethylase 4D (Q6B0I6 whole entry): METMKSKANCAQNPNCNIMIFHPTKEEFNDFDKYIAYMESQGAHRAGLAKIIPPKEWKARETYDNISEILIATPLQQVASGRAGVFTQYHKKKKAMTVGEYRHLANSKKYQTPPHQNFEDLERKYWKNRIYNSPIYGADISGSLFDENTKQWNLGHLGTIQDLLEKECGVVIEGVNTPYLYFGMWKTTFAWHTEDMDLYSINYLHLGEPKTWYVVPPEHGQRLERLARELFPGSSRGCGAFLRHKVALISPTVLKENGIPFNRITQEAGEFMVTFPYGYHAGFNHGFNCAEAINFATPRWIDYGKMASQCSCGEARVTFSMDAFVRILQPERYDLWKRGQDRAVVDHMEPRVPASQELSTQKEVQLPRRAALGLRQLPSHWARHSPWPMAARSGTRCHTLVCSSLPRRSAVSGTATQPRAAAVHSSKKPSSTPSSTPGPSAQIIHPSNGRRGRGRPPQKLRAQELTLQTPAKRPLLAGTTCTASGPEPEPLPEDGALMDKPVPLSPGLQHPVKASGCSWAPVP
The target of experiment [5] is Voltage-gated potassium channel, IKs; KCNQ1(Kv7.1)/KCNE1(MinK) (Homo sapiens, UniProt P51787+P15382). In words: Blockade of human KCNQ1/KCNE1 by electrophysiology assay. It is filed as protein-complex assay.
Sequence of Voltage-gated potassium channel, IKs; KCNQ1(Kv7.1)/KCNE1(MinK) (P51787 whole entry): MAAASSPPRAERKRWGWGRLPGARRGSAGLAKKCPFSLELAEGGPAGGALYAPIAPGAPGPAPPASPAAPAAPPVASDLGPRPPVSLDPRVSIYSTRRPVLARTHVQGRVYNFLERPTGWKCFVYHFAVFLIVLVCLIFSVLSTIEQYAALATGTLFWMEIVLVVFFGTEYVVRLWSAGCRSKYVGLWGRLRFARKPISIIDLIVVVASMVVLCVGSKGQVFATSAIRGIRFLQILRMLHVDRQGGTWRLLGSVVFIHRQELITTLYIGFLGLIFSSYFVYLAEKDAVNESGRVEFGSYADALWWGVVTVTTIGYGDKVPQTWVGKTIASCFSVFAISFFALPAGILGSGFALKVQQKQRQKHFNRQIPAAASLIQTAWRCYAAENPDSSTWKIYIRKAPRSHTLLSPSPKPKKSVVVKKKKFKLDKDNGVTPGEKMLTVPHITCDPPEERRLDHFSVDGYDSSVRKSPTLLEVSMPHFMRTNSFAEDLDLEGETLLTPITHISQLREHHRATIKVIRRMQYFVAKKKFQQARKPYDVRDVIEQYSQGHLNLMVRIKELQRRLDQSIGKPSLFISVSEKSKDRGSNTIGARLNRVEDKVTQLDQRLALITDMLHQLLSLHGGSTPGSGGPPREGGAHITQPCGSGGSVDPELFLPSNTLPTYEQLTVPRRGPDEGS
In the next experiment the target is Histone deacetylase 8 (Homo sapiens, UniProt Q9BY41). In words: Inhibition of human HDAC8 by FLINT assay.
Sequence of Histone deacetylase 8 (Q9BY41 whole entry): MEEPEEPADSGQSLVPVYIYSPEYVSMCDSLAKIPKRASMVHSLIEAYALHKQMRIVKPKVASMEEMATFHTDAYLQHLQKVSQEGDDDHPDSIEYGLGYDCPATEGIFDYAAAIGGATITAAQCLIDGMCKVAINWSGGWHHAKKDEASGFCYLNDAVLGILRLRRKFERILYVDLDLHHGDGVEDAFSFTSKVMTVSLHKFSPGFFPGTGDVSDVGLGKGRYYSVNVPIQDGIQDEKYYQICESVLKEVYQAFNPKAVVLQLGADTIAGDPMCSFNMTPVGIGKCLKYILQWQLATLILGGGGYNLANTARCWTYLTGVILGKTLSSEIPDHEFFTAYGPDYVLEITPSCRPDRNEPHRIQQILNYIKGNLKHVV
The target in another experiment is D(2) dopamine receptor (Homo sapiens, UniProt P14416). In words: Antagonist activity at human dopamine 2 receptor by SPA. It is filed as functional.
Sequence of D(2) dopamine receptor (P14416 whole entry): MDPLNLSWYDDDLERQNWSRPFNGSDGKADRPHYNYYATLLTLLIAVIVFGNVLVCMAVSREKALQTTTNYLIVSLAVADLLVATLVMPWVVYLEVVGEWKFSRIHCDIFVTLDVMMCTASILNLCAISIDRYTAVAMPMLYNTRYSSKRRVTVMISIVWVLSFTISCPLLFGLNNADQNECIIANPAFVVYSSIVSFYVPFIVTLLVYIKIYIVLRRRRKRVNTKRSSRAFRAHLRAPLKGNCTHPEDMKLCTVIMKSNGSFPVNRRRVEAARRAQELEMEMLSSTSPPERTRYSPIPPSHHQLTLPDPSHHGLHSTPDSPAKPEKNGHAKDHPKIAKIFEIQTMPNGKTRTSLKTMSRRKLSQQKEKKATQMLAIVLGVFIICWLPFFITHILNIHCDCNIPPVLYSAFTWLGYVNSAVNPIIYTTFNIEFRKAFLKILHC
The target of experiment [6] is T2, 5-hydroxytryptamine receptor 2C (Homo sapiens, UniProt P28335).
T2 sequence (P28335 whole entry): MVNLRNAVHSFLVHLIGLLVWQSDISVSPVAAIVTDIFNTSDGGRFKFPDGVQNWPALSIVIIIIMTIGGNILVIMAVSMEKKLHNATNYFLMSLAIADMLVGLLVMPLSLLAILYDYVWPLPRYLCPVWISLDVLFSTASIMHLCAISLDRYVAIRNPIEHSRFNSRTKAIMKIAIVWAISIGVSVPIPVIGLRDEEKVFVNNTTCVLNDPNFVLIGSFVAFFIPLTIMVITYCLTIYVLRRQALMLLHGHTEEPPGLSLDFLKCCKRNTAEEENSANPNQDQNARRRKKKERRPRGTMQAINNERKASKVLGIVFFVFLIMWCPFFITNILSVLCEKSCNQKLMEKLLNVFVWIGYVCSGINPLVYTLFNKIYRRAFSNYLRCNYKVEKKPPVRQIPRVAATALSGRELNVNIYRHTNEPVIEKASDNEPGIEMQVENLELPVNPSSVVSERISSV
In words: Antagonist activity at human 5-HT2C by intracellular Ca luminescence assay. It is filed as functional, cell-based.

For experiment [7], the target named is T1, 5-hydroxytryptamine receptor 1B. In words: Agonist activity at human 5-HT1B by SPA. It counts as functional.
Another experiment concerns the target Histone deacetylase 1 (Homo sapiens, UniProt Q13547). In words: Inhibition of human HDAC1 by FLINT assay.
Experiment [8] has as its target Beta-2 adrenergic receptor (Homo sapiens, UniProt P07550). The experiment is described as follows: Antagonist activity at human beta2 adrenoceptor by TR-FRET assay. It is filed as functional. (TR-FRET usually uses a lanthanide donor and a delayed reading to cut background.)
Experiment [9] concerns Macrophage. The experiment is described as follows: Antiinflammatory activity in human primary macrophages assessed as effect on LPS-induced TNFSF13 gene expression at 30 uM measured after 2 hrs by RT-PCR array (reference value: 47108 a.u.). It counts as functional.
Experiment [10] concerns Macrophage. The experiment is described as follows: Antiinflammatory activity in human primary macrophages assessed as effect on LPS-induced TNFSF13B gene expression at 30 uM measured after 2 hrs by RT-PCR array (reference value: 28045 a.u.). It is filed as functional.
Experiment [11] deals with Macrophage. In words: Antiinflammatory activity in human primary macrophages assessed as effect on LPS-induced BMP2 gene expression at 30 uM measured after 2 hrs by RT-PCR array (reference value: 331 a.u.). It counts as functional.
Experiment [12] has as its system Macrophage. The experiment is described as follows: Antiinflammatory activity in human primary macrophages assessed as effect on LPS-induced NODAL gene expression at 30 uM measured after 2 hrs by RT-PCR array (reference value: 125 a.u.). It counts as functional.
Experiment [13] has as its system Macrophage. The experiment is described as follows: Antiinflammatory activity in human primary macrophages assessed as effect on LPS-induced IL1F10 gene expression at 30 uM measured after 2 hrs by RT-PCR array (reference value: 125 a.u.). It is filed as functional.
Experiment [14] relates to Macrophage. The experiment is described as follows: Antiinflammatory activity in human primary macrophages assessed as effect on LPS-induced TNF gene expression at 30 uM measured after 2 hrs by RT-PCR array (reference value: 7222474 a.u.). It is filed as functional.
Experiment [15] deals with Macrophage. In words: Antiinflammatory activity in human primary macrophages assessed as effect on LPS-induced FIGF gene expression at 30 uM measured after 2 hrs by RT-PCR array (reference value: 60 a.u.). It is filed as functional.
In experiment [16] the test system is Macrophage. The experiment is described as follows: Antiinflammatory activity in human primary macrophages assessed as effect on LPS-induced IFNA8 gene expression at 30 uM measured after 2 hrs by RT-PCR array (reference value: 425 a.u.). It counts as functional.
Experiment [17] relates to Macrophage. In words: Antiinflammatory activity in human primary macrophages assessed as effect on LPS-induced TNFSF12 gene expression at 30 uM measured after 2 hrs by RT-PCR array (reference value: 12514 a.u.). It is filed as functional.
In experiment [18] the test system is Macrophage. The experiment is described as follows: Antiinflammatory activity in human primary macrophages assessed as effect on LPS-induced GDF3 gene expression at 30 uM measured after 2 hrs by RT-PCR array (reference value: 134 a.u.). It counts as functional.
The subject of experiment [19] is Macrophage. The experiment is described as follows: Antiinflammatory activity in human primary macrophages assessed as effect on LPS-induced IL7 gene expression at 30 uM measured after 2 hrs by RT-PCR array (reference value: 60083 a.u.). It is filed as functional.
The subject of experiment [20] is Macrophage. In words: Antiinflammatory activity in human primary macrophages assessed as effect on LPS-induced TNFSF11 gene expression at 30 uM measured after 2 hrs by RT-PCR array (reference value: 32 a.u.). It is filed as functional.
Experiment [21] deals with Macrophage. In words: Antiinflammatory activity in human primary macrophages assessed as effect on LPS-induced IL17C gene expression at 30 uM measured after 2 hrs by RT-PCR array (reference value: 157 a.u.). It counts as functional.
Experiment [22] deals with Macrophage. In words: Antiinflammatory activity in human primary macrophages assessed as effect on LPS-induced IL24 gene expression at 30 uM measured after 2 hrs by RT-PCR array (reference value: 12164 a.u.). It is filed as functional.
The test system of experiment [23] is Macrophage. The experiment is described as follows: Antiinflammatory activity in human primary macrophages assessed as effect on LPS-induced IL11 gene expression at 30 uM measured after 2 hrs by RT-PCR array (reference value: 6 a.u.). It is filed as functional.
Experiment [24] relates to Macrophage. The experiment is described as follows: Antiinflammatory activity in human primary macrophages assessed as effect on LPS-induced TGFA gene expression at 30 uM measured after 2 hrs by RT-PCR array (reference value: 3224 a.u.). It counts as functional.
Experiment [25] concerns Macrophage. In words: Antiinflammatory activity in human primary macrophages assessed as effect on LPS-induced IL1F8 gene expression at 30 uM measured after 2 hrs by RT-PCR array (reference value: 1429 a.u.). It is filed as functional.
The subject of experiment [26] is Macrophage. In words: Antiinflammatory activity in human primary macrophages assessed as effect on LPS-induced IL20 gene expression at 30 uM measured after 2 hrs by RT-PCR array (reference value: 2040 a.u.). It is filed as functional.
Experiment [27] has as its system Macrophage. The experiment is described as follows: Antiinflammatory activity in human primary macrophages assessed as effect on LPS-induced IL1F9 gene expression at 30 uM measured after 2 hrs by RT-PCR array (reference value: 5170 a.u.). It counts as functional.

Some results are limits rather than exact numbers.

T1 sequence (P28222 whole entry): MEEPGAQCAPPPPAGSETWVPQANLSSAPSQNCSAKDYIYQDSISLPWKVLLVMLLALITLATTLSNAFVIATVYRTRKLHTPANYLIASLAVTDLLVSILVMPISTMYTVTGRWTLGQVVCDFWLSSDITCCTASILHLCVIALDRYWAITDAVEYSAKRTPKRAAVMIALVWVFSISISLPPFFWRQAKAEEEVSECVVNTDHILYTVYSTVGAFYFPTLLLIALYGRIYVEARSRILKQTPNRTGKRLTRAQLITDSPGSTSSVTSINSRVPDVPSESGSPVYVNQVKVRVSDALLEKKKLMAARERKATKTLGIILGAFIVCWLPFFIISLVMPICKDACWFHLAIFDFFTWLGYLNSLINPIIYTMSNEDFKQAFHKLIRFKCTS
Sequence of Beta-2 adrenergic receptor (P07550 whole entry): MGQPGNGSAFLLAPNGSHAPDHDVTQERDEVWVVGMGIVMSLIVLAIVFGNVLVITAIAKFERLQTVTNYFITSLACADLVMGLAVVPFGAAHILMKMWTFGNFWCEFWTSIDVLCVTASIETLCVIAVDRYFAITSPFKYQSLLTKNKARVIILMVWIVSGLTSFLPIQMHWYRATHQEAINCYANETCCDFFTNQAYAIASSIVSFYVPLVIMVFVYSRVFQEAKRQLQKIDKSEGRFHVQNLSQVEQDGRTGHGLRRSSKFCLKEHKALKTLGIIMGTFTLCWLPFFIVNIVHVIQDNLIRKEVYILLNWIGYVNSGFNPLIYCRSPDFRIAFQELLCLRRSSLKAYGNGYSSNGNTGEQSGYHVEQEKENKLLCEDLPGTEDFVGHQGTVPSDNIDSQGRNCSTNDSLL
Sequence of Histone deacetylase 1 (Q13547 whole entry): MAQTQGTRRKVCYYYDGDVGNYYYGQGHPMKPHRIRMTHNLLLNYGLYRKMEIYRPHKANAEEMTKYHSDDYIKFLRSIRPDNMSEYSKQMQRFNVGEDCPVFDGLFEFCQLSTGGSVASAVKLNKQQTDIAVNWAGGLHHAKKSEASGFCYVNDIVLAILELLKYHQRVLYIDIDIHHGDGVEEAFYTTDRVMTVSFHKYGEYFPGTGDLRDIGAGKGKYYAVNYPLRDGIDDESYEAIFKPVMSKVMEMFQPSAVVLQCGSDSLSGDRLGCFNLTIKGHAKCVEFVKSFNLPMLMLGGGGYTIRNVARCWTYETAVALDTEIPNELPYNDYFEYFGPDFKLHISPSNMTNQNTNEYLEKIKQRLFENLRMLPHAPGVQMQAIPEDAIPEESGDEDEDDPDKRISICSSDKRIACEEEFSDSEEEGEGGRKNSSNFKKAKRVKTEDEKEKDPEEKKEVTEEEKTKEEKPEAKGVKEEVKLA
Sequence of Histone deacetylase 3 (O15379 whole entry): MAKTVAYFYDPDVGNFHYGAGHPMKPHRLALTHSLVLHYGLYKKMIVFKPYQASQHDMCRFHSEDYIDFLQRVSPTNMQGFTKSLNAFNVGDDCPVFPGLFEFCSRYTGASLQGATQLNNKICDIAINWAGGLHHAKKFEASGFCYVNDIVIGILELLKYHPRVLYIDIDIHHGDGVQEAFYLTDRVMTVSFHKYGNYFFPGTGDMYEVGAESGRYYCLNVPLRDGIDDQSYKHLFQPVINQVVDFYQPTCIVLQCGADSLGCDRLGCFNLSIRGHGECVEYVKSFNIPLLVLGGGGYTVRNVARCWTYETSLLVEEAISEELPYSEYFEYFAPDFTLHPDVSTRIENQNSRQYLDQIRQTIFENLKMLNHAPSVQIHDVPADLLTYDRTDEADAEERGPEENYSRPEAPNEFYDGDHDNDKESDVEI

Regarding `O=C(O)CCNc1cc(N2CCc3ccccc3CC2)nc(-c2ccccn2)n1`, the XC50 is above 300 µM on Histone deacetylase 3; above 4.3 µM in experiment [1]; above 32 µM in experiment [2]; above 300 µM on Histone deacetylase 4; above 50 µM in experiment [3]; above 25 µM in [5]. For the same compound, the XC50 was above 300 µM on Histone deacetylase 8; above 100 µM at D(2) dopamine receptor; above 40 µM in experiment [6]; above 32 µM in [7]; above 300 µM on Histone deacetylase 1; above 32 µM in experiment [8]. Further, in [4], the IC50 was 79 µM.
For `CCOC(=O)CCNc1cc(N2CCc3ccccc3CC2)nc(-c2cccnc2)n1`, the Activity in the experiment with Macrophage [9] is 39565 a.u; in the experiment with Macrophage [10] it was 22792 a.u; in the experiment on Macrophage [11], 347 a.u; in the experiment with Macrophage [12] it was 45 a.u; in the experiment on Macrophage [13], 102 a.u; with Macrophage [14] it was 5261995 a.u. The Activity in the experiment on Macrophage [15] stood at 87 a.u; with Macrophage [16], 431 a.u; in the experiment with Macrophage [17], 10108 a.u; in the experiment on Macrophage [18], 151 a.u; in the experiment on Macrophage [19] it was 24543 a.u; in the experiment on Macrophage [20], 27 a.u. Besides, the Activity in the experiment on Macrophage [21] came out at 253 a.u; with Macrophage [22], 10100 a.u; in the experiment on Macrophage [23] it was 32 a.u; in the experiment with Macrophage [24], 2862 a.u; with Macrophage [25] it was 2282 a.u; in the experiment with Macrophage [26], 748 a.u. In the experiment on Macrophage [27], the Activity was 2413 a.u.
Take `O=C(O)CCNc1cc(N2CCc3ccccc3CC2)nc(-c2cccnc2)n1`: the XC50 was above 300 µM on Histone deacetylase 3; 25 µM in experiment [1]; above 32 µM in experiment [2]; above 300 µM at Histone deacetylase 4; above 50 µM in experiment [3]; above 25 µM in [5]. Also, the XC50 at Histone deacetylase 8 is above 300 µM; at D(2) dopamine receptor it was above 100 µM; in experiment [6] it was above 40 µM; in experiment [7], above 32 µM; on Histone deacetylase 1, above 300 µM; in experiment [8] it was above 32 µM. Also, in experiment [4], the IC50 is above 100 µM.
Regarding `CCOC(=O)CCNc1cc(N2CCc3ccccc3CC2)nc(-c2ccccn2)n1`, the Activity in the experiment with Macrophage [9] is 43866 a.u; with Macrophage [10], 18715 a.u; in the experiment with Macrophage [11], 3 a.u; in the experiment on Macrophage [12] it was 197 a.u; with Macrophage [13], 11 a.u; with Macrophage [14] it was 1593909 a.u. Moreover, the Activity stood at 19 a.u in the experiment with Macrophage [15]; 1012 a.u in the experiment with Macrophage [16]; 8686 a.u in the experiment on Macrophage [17]; 59 a.u with Macrophage [18]; 4135 a.u in the experiment on Macrophage [19]; 255 a.u with Macrophage [20]. For the same compound, the Activity with Macrophage [21] is given as 107 a.u; in the experiment on Macrophage [22], 11754 a.u; in the experiment with Macrophage [23], 403 a.u; in the experiment on Macrophage [24] it was 3241 a.u; in the experiment with Macrophage [25], 1157 a.u; in the experiment with Macrophage [26], 372 a.u. Besides, in the experiment with Macrophage [27], the Activity came out at 476 a.u.

By IC50 is commonly meant the midpoint of a concentration-inhibition curve.
